In US20250073184A1, “CANNABIGEROQUINONE COMPOUNDS, COMPOSITIONS INCLUDING SUCH COMPOUNDS, AND USES OF SUCH COMPOUNDS AND COMPOSITIONS” (Juva Life, Inc., priority 2021, published 2025):

What was measured:
[1] = molecular target: T1, cannabinoid receptor 1 (CNR1) (Homo sapiens, UniProt P21554); assay: CB1 receptor agonist assay (cAMP Hunter eXpress, CNR1 CHO-K1 cells); type: cell-based; conditions: agonist mode, Forskolin-stimulated cAMP
T1 construct: host or cells: CHO-K1
Protocol: (§1) The assays were performed in cAMP Hunter eXpress cells engineered to overexpress naturally Gi/Go-coupled wildtype cannabinoid receptor 1 (CNR1) or cannabinoid receptor 2 (CNR2) in CHO-K1 cell type. In these cells, CB1 and/or […] agonists inhibit production of intracellular cAMP in response to stimulation with Forskolin. cAMP levels are determined using luminogenic detection reagents provided with the Hunter eXpress cAMP detection kit.
(§2) • Assay ready CNR1 CHO-K1 cells were obtained from Eurofins/Discover X, cat #95-0071E2 • Assay ready CNR2 CHO-K1 cells were obtained from Eurofins/Discover X, cat #95-0183E2 • Hunter eXpress cAMP detection kit was also from Discover X. The kit includes all cAMP detection reagents, Forskolin, complete cell plating medium and cell assay buffer.
The Assay-Ready CNR1 CHO-K1 or CNR2 CHO-K1 cells were thawed and re-suspended in pre-warmed Assay Complete plating medium and inoculated into 96 well plate at a density of 30,000 cells in 100 μL. The plates with cells were incubated for 24 h at 37° C. in 5% CO2. […] The cells were stimulated with the Forskolin/compound buffer for 30 min. […] The plate was read on Biotek Synergy Neo2 reader in luminescent mode. […] Relative luminescence units (RLUs) were plotted against compound concentration to determine apparent EC50 values of the agonist compounds.

[2] = tested on: SK-MEL-28 melanoma cell line; assay: SK-MEL-28 cell line toxicity (Cell titer Glo viability); type: cell-based; conditions: SK-MEL-28, 72 h
Protocol: (§3) Culture medium were purchased from ATCC, USA.
• General cell culture reagents and plastic. • 384-Well Flat white Poly-styrene TC-Treated Microplates (Corning). • 384 well poly-propylene plates (acoustic grade, Labcyte) for compound dilution. • Cell titer Glo luminescent Cell Viability reagent (Cat #G7571, Promega).
90 nL DMSO is added to control wells. […] Luminescence was then recorded using Synergy Neo2Multi-mode Reader.

[3] = tested on: PANC-1 pancreatic carcinoma cell line; assay: PANC-1 cell line toxicity (Cell titer Glo viability); conditions: PANC-1, 72 h
Protocol: The half maximal inhibition concentration (IC50) for each compound was determined by harvesting cells during the logarithmic growth period and then counting cell number using hemocytometer. The cell concentrations were adjusted to 5×10^4 cells/mL with respective culture medium. 30 μL of cell suspensions were added to three 384-well plates with the final cell density of 1.5×10^3 cells/well. Then, using a Biomek FX, test articles were serially diluted (10 mM top, 3× dilution intervals) along with a reference inhibitor (1 mM top, 3× dilution intervals) in acoustic grade Labcyte plate. Then, using an acoustic dispenser (Labcyte550), compounds were added as serially diluted to plate with cells: 90 nL of serially diluted compounds per well. 90 nL DMSO is added to control wells. Test plates were incubated for 72 h in the humidified incubator at 37° C. with 5% CO2. 25 μL of reconstituted Cell titer Glo reagent was added to each well. Each test plate was then incubated for 20 min at room temperature. Luminescence was then recorded using Synergy Neo2Multi-mode Reader.
In order to calculate intersect IC50, a dose-response curve was fitted using nonlinear regression model with a sigmoidal dose response.
The formula for calculating surviving rate is shown below, and the intersect IC50 was calculated according to the dose-response curve generated by the software:
as §3

[4] = molecular target: T2, cannabinoid receptor 2 (CNR2) (Homo sapiens, UniProt P34972); assay: CB2 receptor agonist assay (cAMP Hunter eXpress, CNR2 CHO-K1 cells); type: cell-based; conditions: agonist mode, Forskolin-stimulated cAMP, CNR2 CHO-K1 cells
T2 construct: host or cells: CHO-K1
T2 sequence (P34972 whole entry): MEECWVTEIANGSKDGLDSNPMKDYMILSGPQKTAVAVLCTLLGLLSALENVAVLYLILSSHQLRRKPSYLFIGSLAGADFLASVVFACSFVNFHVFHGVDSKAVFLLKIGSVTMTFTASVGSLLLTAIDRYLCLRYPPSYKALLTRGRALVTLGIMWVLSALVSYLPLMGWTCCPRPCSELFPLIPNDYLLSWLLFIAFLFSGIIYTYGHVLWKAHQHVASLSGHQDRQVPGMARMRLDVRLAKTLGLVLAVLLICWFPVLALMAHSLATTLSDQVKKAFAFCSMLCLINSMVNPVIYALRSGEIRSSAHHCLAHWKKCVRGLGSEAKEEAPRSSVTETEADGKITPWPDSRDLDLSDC
Protocol: as §1, §2
The Assay-Ready CNR1 CHO-K1 or CNR2 CHO-K1 cells were thawed and re-suspended in pre-warmed Assay Complete plating medium and inoculated into 96 well plate at a density of 30,000 cells in 100 μL. The plates with cells were incubated for 24 h at 37° C. in 5% CO2. […] The cells were stimulated with the Forskolin/compound buffer for 30 min. After stimulation, 15 μL of cAMP antibody reagent and 60 μL of cAMP working detection solution were added to the cells and, the cells were incubated for 1 h at room temperature. After 1 h incubation, 60 μL of cAMP Solution A was added to the wells and the plate was incubated for 3 h at room temperature. The plate was read on Biotek Synergy Neo2 reader in luminescent mode. CB1 and CB2 agonists should reduce cAMP production in response to Forskilin. Relative luminescence units (RLUs) were plotted against compound concentration to determine apparent EC50 values of the agonist compounds.

T1 sequence (P21554 whole entry): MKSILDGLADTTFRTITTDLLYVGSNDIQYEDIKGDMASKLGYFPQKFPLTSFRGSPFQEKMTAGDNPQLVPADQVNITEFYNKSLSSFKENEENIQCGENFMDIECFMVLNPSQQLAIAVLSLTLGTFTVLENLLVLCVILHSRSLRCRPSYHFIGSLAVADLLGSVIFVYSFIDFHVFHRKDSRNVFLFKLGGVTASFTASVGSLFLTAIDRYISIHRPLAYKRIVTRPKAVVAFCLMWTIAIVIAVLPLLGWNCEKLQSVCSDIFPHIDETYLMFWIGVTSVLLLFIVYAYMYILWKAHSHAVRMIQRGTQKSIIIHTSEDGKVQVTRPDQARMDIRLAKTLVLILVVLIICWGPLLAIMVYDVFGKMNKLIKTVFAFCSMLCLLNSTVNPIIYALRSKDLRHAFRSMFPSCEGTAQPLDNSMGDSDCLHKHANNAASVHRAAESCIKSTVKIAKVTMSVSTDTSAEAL

## Cannabigerol Quinone [Formula VI]
[1]
  IC50: > 3 µM
[2]
  EC50: > 30 µM
  higher tolerance of SK-MEL-28 cells to the compound than staurosporine: more than 250 fold
[2]; 0.00017 uM
  Cell Viability (%): 100.0%
[2]; 0.00051 uM
  Cell Viability (%): 97.2%
[2]; 0.0015 uM
  Cell Viability (%): 96.2%
[2]; 0.0046 uM
  Cell Viability (%): 101.0%
[2]; 0.014 uM
  Cell Viability (%): 98.5%
[2]; 0.041 uM
  Cell Viability (%): 99.9%
[2]; 0.12 uM
  Cell Viability (%): 100.0%
[2]; 0.37 uM
  Cell Viability (%): 101.0%
[2]; 1.1 uM
  Cell Viability (%): 99.9%
[2]; 3.3 uM
  Cell Viability (%): 104.0%
[2]; 10 uM
  Cell Viability (%): 99.0%
[2]; 30 uM
  Cell Viability (%): 83.2%
[3]
  higher tolerance of PANG-1 cells to the compound than staurosporine: more than 750 fold
[3]; 0.00017 uM
  Cell Viability (%): 106.6%
[3]; 0.00051 uM
  Cell Viability (%): 107.5%
[3]; 0.0015 uM
  Cell Viability (%): 100.4%
[3]; 0.0046 uM
  Cell Viability (%): 104.2%
[3]; 0.014 uM
  Cell Viability (%): 100.2%
[3]; 0.041 uM
  Cell Viability (%): 99.9%
[3]; 0.12 uM
  Cell Viability (%): 99.2%
[3]; 0.37 uM
  Cell Viability (%): 98.6%
[3]; 1.1 uM
  Cell Viability (%): 102.6%
[3]; 3.3 uM
  Cell Viability (%): 95.7%
[3]; 10 uM
  Cell Viability (%): 99.4%
[3]; 30 uM
  Cell Viability (%): 99.8%
[3]; read-out: EC50 (cell viability)
  EC50: > 30 µM
[4]
  IC50: 0.12 µM
